Consider 15 compounds from patent publication US7442699B2, “Anilinopyrimidine derivatives as IKK inhibitors and compositions and methods related thereto” (Signal Pharmaceuticals, LLC, priority 2000, dated 2008).

In this assay the target is T1, IKK-2 (Homo sapiens, UniProt O14920, S177E/S181E).
T1 construct: His6
T1 sequence (O14920 1-756 S177E/S181E): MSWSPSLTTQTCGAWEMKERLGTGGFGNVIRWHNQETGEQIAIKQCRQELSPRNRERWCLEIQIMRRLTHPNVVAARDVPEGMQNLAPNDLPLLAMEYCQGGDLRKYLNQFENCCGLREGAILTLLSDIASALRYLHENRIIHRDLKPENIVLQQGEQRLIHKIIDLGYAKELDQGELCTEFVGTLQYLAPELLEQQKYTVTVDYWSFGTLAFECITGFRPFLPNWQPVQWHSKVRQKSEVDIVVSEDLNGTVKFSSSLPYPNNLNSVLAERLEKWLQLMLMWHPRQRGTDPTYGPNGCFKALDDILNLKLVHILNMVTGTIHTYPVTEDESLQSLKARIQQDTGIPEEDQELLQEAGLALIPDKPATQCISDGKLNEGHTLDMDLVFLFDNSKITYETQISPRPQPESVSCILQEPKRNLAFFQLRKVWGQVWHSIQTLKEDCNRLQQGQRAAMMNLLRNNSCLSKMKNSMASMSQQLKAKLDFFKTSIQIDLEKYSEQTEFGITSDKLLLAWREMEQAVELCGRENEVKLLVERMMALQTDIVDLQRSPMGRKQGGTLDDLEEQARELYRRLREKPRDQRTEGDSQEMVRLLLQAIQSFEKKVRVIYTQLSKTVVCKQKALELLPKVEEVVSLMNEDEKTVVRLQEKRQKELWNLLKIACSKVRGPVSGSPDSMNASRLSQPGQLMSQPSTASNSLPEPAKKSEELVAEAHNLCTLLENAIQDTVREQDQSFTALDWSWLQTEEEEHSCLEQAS
Description: IKK-2 Enzyme Assay. The format is biochemical. Conditions: read-out: IC50 value in the IKK-2 Enzyme Assay. On the procedure:
The mixture is preincubated for 15 minutes at room temperature. […] After 30 minutes the precipitate is harvested onto a filter plate to which 50 μl of scintillation fluid is added and then quantified by a scintillation counter.

Where [1] appears, read: more preferred compounds, 500 nM or less.
Setting [2] is: preferred compounds, 1 μM or less.

Counter-ions that a name gives are not always drawn. Like-named read-outs stand apart in the source and are kept apart here.

Take `CC(=O)N1CCCN(C(=O)c2ccc(Nc3nccc(-c4ccc(Cl)cc4)n3)cc2)CC1` [Compound 17-160]: the IC50 – broadly, the concentration that inhibits the measured activity by half – by setting is: under setting [1], not above 500 nM; under setting [2], not above 1000 nM.
In the same order, the values of `O=C(c1ccc(Nc2nccc(-c3ccc(Cl)cc3)n2)cc1)N1CCN(Cc2cccnc2)CC1` [Compound 17-161] are not above 500 nM and not above 1000 nM.
In the same order, the values of `CCN(C(C)=O)C1CCN(C(=O)c2ccc(Nc3nccc(-c4ccc(Cl)cc4)n3)cc2)C1` (stereo not drawn) [Compound 17-162] are not above 500 nM and not above 1000 nM.
The like results for `CC(=O)N(C)C1CCN(C(=O)c2ccc(Nc3nccc(-c4ccc(Cl)cc4)n3)cc2)C1` (stereo not drawn) [Compound 17-163] were, in that order, not above 500 nM and not above 1000 nM.
Regarding `O=C(c1ccc(Nc2nccc(-c3ccc(Cl)cc3)n2)cc1)N1CCC(N2CCCCC2)CC1` [Compound 17-169], the IC50 runs as follows: under setting [1], not above 500 nM; under setting [2], not above 1000 nM.
Turning to `O=C(c1ccc(Nc2nccc(-c3ccc(Cl)cc3)n2)cc1)N1CCC(N2CCCC2)CC1` [Compound 17-171], the IC50 is, setting by setting: under setting [1], not above 500 nM; under setting [2], not above 1000 nM.
As for `C[C@@H]1CN(C(=O)c2ccc(Nc3nccc(-c4ccc(Cl)cc4)n3)cc2)C[C@H](C)N1` [Compound 17-190], the IC50 reads like this: under setting [1], not above 500 nM; under setting [2], not above 1000 nM.
The like results for `O=C(c1ccc(Nc2nccc(-c3ccc(Cl)cc3)n2)cc1)N1CCN(CCO)CC1` [Compound 17-215] were, in that order, not above 500 nM and not above 1000 nM.
Take `O=C(c1ccc(Nc2nccc(-c3ccc(Cl)cc3)n2)cc1)N1CCNCC1` [Compound 18, 4-{[4-(4-chlorophenyl)pyrimidin-2-yl]amino}benzoic acid piperazine amide hydrochloride]: the IC50 is, setting by setting: under setting [1], not above 500 nM; under setting [2], not above 1000 nM.
With `CC(=O)NC1CCN(C(=O)c2ccc(Nc3nccc(-c4ccc(Cl)cc4)n3)cc2)CC1` [Compound 20-1, N-{1-[(4-{[4-(4-Chlorophenyl)pyrimidin-2-yl]amino}phenyl)carbonyl]-4-piperidyl}acetamide], the IC50 is, setting by setting: under setting [1], not above 500 nM; under setting [2], not above 1000 nM.
For the compound `Cc1noc(C)c1C(=O)NC1CCN(C(=O)c2ccc(Nc3nccc(-c4ccc(Cl)cc4)n3)cc2)CC1` [Compound 20-2], the IC50 is not above 500 nM under setting [1] and not above 1000 nM under setting [2].
Consider `O=C(NC1CCN(C(=O)c2ccc(Nc3nccc(-c4ccc(Cl)cc4)n3)cc2)CC1)c1cccs1` [Compound 20-3], for which the IC50 by setting is: under setting [1], not above 500 nM; under setting [2], not above 1000 nM.
In the same order, the values of `O=C(NC1CCN(C(=O)c2ccc(Nc3nccc(-c4ccc(Cl)cc4)n3)cc2)CC1)N1CCOCC1` [Compound 20-4] are not above 500 nM and not above 1000 nM.
In the same order, the values of `CN(C)C(=O)NC1CCN(C(=O)c2ccc(Nc3nccc(-c4ccc(Cl)cc4)n3)cc2)CC1` [Compound 20-5] are not above 500 nM and not above 1000 nM.
The like results for `COCC(=O)NC1CCN(C(=O)c2ccc(Nc3nccc(-c4ccc(Cl)cc4)n3)cc2)CC1` [Compound 20-6] were, in that order, not above 500 nM and not above 1000 nM.
